# Assay results reported in US8802597B2, “Herbicidal pyrimidines” (E I du Pont de Nemours and Company, priority 2003, dated 2014).
# Tests used:
# Type in all cases: in vivo
# wild oat (Avena fatua) = assay: Test B postemergence; settings: for Oat, Wild plant response rating: 125 g ai/ha, scale 0 to 100 (0 no effect, 100 complete control); for Plant response rating, Oat, Wild: 500 g ai/ha, scale 0 to 100
# Summary of the method: (§1)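 Formulation: non-phytotoxic solvent blend with surfactant. Timing: preemergence on seeds, postemergence at 1- to 4-leaf (2–18 cm). Assessment: visual, 0–100 against controls, after 13–15 days' greenhouse growth.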
# [1] = test system: blackgrass (Alopecurus myosuroides); assay: Test B postemergence; settings: for Blackgrass plant response rating: 125 g ai/ha, scale 0 to 100 (0 no effect, 100 complete control); for Plant response rating, Blackgrass: 500 g ai/ha, scale 0 to 100
# Summary of the method: as §1
# [2] = test system: pigweed (Amaranthus retroflexus); assay: Test B pre/postemergence
# Summary of the method: as §1
# [3] = test system: morningglory (Ipomoea coccinea); assay: Test B pre/postemergence
# Summary of the method: as §1
# corn (Zea mays) = assay: Test B pre/postemergence
# Summary of the method: as §1
# [4] = test system: Surinam grass (Brachiaria decumbens); assay: Test B pre/postemergence
# Summary of the method: as §1
# [5] = test system: giant foxtail (Setaria faberii); assay: Test B pre/postemergence
# Summary of the method: as §1
# [6] = test system: wheat (Triticum aestivum); assay: Test B pre/postemergence
# Summary of the method: as §1
# [7] = test system: barnyardgrass (Echinochloa crus-galli); assay: Test B pre/postemergence
# Summary of the method: as §1
# [8] = test system: velvetleaf (Abutilon theophrasti); assay: Test B pre/postemergence
# Summary of the method: as §1
# [9] = test system: cocklebur (Xanthium strumarium); assay: Test B pre/postemergence
# Summary of the method: as §1
# [10] = test system: lambsquarters (Chenopodium album); assay: Test B pre/postemergence
# Summary of the method: as §1
# [11] = test system: crabgrass (Digitaria sanguinalis); assay: Test B pre/postemergence
# Summary of the method: as §1
# [12] = test system: barnyardgrass (Echinochloa crus-galli); assay: Test B flooded paddy test; settings: Flood, 1000 g ai/ha; scale 0 (no effect) to 100 (complete control)
# Summary of the method: (§2)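 Visual injury scoring (0 = no effect, 100 = complete control) versus controls made 13 to 15 days after treatment in the greenhouse. Test species were grown in flooded paddy to the 2-leaf stage: rice, barnyardgrass, umbrella sedge, duck salad.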
# [13] = test system: umbrella sedge (Cyperus difformis); assay: Test B flooded paddy test; settings: Flood, 1000 g ai/ha; scale 0 to 100
# Summary of the method: as §2
# rice (Oryza sativa) = assay: Test B flooded paddy test; settings: Flood, 1000 g ai/ha; scale 0 to 100
# Summary of the method: as §2
# [14] = test system: duck salad (Heteranthera limosa); assay: Test B flooded paddy test; settings: Flood, 1000 g ai/ha; scale 0 to 100
# Summary of the method: as §2
# [15] = Postemergence, 125 g ai/ha, scale 0 to 100 (0 no effect, 100 complete control)
# [16] = Postemergence, 500 g ai/ha, scale 0 to 100
# [17] = Preemergence, 125 g ai/ha, scale 0 to 100 (0 no effect, 100 complete control)
# [18] = Preemergence, 500 g ai/ha, scale 0 to 100 (0 no effect, 100 complete control)
smiles,measurement,setting,value
COCc1nc(C2CC2)nc(N)c1Br [Compound 11],"Oat, Wild plant response rating",wild oat (Avena fatua),0
same,"Plant response rating, Oat, Wild",wild oat (Avena fatua),10
same,Blackgrass plant response rating,[1],20
same,"Plant response rating, Blackgrass",[1],60
same,Pigweed plant response rating,[2]; [15],80
same,"Plant response rating, Pigweed",[2]; [16],90
same,"Plant response rating, Pigweed",[2]; [17],80
same,Pigweed plant response rating,[2]; [18],90
same,Morningglory plant response rating,[3]; [15],80
same,"Plant response rating, Morningglory",[3]; [16],100
same,"Plant response rating, Morningglory",[3]; [17],80
same,Morningglory plant response rating,[3]; [18],90
same,Corn plant response rating,corn (Zea mays); [15],0
same,"Plant response rating, Corn",corn (Zea mays); [16],0
same,"Plant response rating, Corn",corn (Zea mays); [17],0
same,Corn plant response rating,corn (Zea mays); [18],0
same,Surinam Grass plant response rating,[4]; [15],20
same,"Plant response rating, Surinam Grass",[4]; [16],50
same,"Plant response rating, Surinam Grass",[4]; [17],10
same,Surinam Grass plant response rating,[4]; [18],70
same,"Foxtail, Giant plant response rating",[5]; [15],10
same,"Plant response rating, Foxtail, Giant",[5]; [16],50
same,"Plant response rating, Foxtail, Giant",[5]; [17],10
same,"Foxtail, Giant plant response rating",[5]; [18],70
same,Wheat plant response rating,[6]; [15],0
same,"Plant response rating, Wheat",[6]; [16],40
same,"Plant response rating, Wheat",[6]; [17],0
same,Wheat plant response rating,[6]; [18],50
same,Barnyardgrass plant response rating,[7]; [15],20
same,"Plant response rating, Barnyardgrass",[7]; [16],90
same,"Plant response rating, Barnyardgrass",[7]; [17],0
same,Barnyardgrass plant response rating,[7]; [18],10
same,Velvetleaf plant response rating,[8]; [15],60
same,"Plant response rating, Velvetleaf",[8]; [16],80
same,"Plant response rating, Velvetleaf",[8]; [17],80
same,Velvetleaf plant response rating,[8]; [18],90
same,Cocklebur plant response rating,[9]; [15],80
same,"Plant response rating, Cocklebur",[9]; [16],90
same,"Plant response rating, Cocklebur",[9]; [17],80
same,Cocklebur plant response rating,[9]; [18],90
same,Lambsquarters plant response rating,[10]; [15],90
same,"Plant response rating, Lambsquarters",[10]; [16],100
same,"Plant response rating, Lambsquarters",[10]; [17],100
same,Lambsquarters plant response rating,[10]; [18],100
same,Crabgrass plant response rating,[11]; [15],30
same,"Plant response rating, Crabgrass",[11]; [16],70
same,"Plant response rating, Crabgrass",[11]; [17],30
same,Crabgrass plant response rating,[11]; [18],80
same,"Plant response rating, Barnyardgrass",[12],0
same,"Plant response rating, Sedge, Umbrella",[13],20
same,"Plant response rating, Rice",rice (Oryza sativa),0
same,"Plant response rating, Ducksalad",[14],70
Nc1nc(C2CC2)nc(C=NO)c1Br [Compound 27],"Oat, Wild plant response rating",wild oat (Avena fatua),20
same,"Plant response rating, Oat, Wild",wild oat (Avena fatua),30
same,Blackgrass plant response rating,[1],30
same,"Plant response rating, Blackgrass",[1],30
same,Pigweed plant response rating,[2]; [15],60
same,"Plant response rating, Pigweed",[2]; [16],70
same,"Plant response rating, Pigweed",[2]; [17],90
same,Pigweed plant response rating,[2]; [18],100
same,Morningglory plant response rating,[3]; [15],70
same,"Plant response rating, Morningglory",[3]; [16],90
same,"Plant response rating, Morningglory",[3]; [17],80
same,Morningglory plant response rating,[3]; [18],90
same,Corn plant response rating,corn (Zea mays); [15],0
same,"Plant response rating, Corn",corn (Zea mays); [16],20
same,"Plant response rating, Corn",corn (Zea mays); [17],10
same,Corn plant response rating,corn (Zea mays); [18],50
same,Surinam Grass plant response rating,[4]; [15],0
same,"Plant response rating, Surinam Grass",[4]; [16],0
same,"Plant response rating, Surinam Grass",[4]; [17],0
same,Surinam Grass plant response rating,[4]; [18],70
same,"Foxtail, Giant plant response rating",[5]; [15],20
same,"Plant response rating, Foxtail, Giant",[5]; [16],30
same,"Plant response rating, Foxtail, Giant",[5]; [17],0
same,"Foxtail, Giant plant response rating",[5]; [18],40
same,Wheat plant response rating,[6]; [15],20
same,"Plant response rating, Wheat",[6]; [16],30
same,"Plant response rating, Wheat",[6]; [17],10
same,Wheat plant response rating,[6]; [18],50
same,Barnyardgrass plant response rating,[7]; [15],0
same,"Plant response rating, Barnyardgrass",[7]; [16],0
same,"Plant response rating, Barnyardgrass",[7]; [17],30
same,Barnyardgrass plant response rating,[7]; [18],60
same,Velvetleaf plant response rating,[8]; [15],60
same,"Plant response rating, Velvetleaf",[8]; [16],70
same,"Plant response rating, Velvetleaf",[8]; [17],80
same,Velvetleaf plant response rating,[8]; [18],90
same,Cocklebur plant response rating,[9]; [15],100
same,"Plant response rating, Cocklebur",[9]; [16],100
same,"Plant response rating, Cocklebur",[9]; [17],80
same,Cocklebur plant response rating,[9]; [18],90
same,Lambsquarters plant response rating,[10]; [15],80
same,"Plant response rating, Lambsquarters",[10]; [16],90
same,"Plant response rating, Lambsquarters",[10]; [17],90
same,Lambsquarters plant response rating,[10]; [18],100
same,Crabgrass plant response rating,[11]; [15],10
same,"Plant response rating, Crabgrass",[11]; [16],10
same,"Plant response rating, Crabgrass",[11]; [17],30
same,Crabgrass plant response rating,[11]; [18],70
same,"Plant response rating, Barnyardgrass",[12],0
same,"Plant response rating, Sedge, Umbrella",[13],60
same,"Plant response rating, Rice",rice (Oryza sativa),20
same,"Plant response rating, Ducksalad",[14],60
CCOC(=O)C(OC(C)=O)c1nc(C2CC2)nc(N)c1Br (stereo not drawn) [Compound 47],"Oat, Wild plant response rating",wild oat (Avena fatua),0
same,"Plant response rating, Oat, Wild",wild oat (Avena fatua),0
same,Blackgrass plant response rating,[1],0
same,"Plant response rating, Blackgrass",[1],0
same,Pigweed plant response rating,[2]; [15],70
same,"Plant response rating, Pigweed",[2]; [16],80
same,"Plant response rating, Pigweed",[2]; [17],80
same,Pigweed plant response rating,[2]; [18],90
same,Morningglory plant response rating,[3]; [15],80
same,"Plant response rating, Morningglory",[3]; [16],90
same,"Plant response rating, Morningglory",[3]; [17],80
same,Morningglory plant response rating,[3]; [18],100
same,Corn plant response rating,corn (Zea mays); [15],0
same,"Plant response rating, Corn",corn (Zea mays); [16],0
same,"Plant response rating, Corn",corn (Zea mays); [17],0
same,Corn plant response rating,corn (Zea mays); [18],30
same,Surinam Grass plant response rating,[4]; [15],0
same,"Plant response rating, Surinam Grass",[4]; [16],20
same,"Plant response rating, Surinam Grass",[4]; [17],0
same,Surinam Grass plant response rating,[4]; [18],20
same,"Foxtail, Giant plant response rating",[5]; [15],10
same,"Plant response rating, Foxtail, Giant",[5]; [16],50
same,"Plant response rating, Foxtail, Giant",[5]; [17],20
same,"Foxtail, Giant plant response rating",[5]; [18],40
same,Wheat plant response rating,[6]; [15],0
same,"Plant response rating, Wheat",[6]; [16],0
same,"Plant response rating, Wheat",[6]; [17],20
same,"Plant response rating, Wheat",[6]; [18],50
same,Barnyardgrass plant response rating,[7]; [15],20
same,"Plant response rating, Barnyardgrass",[7]; [16],60
same,"Plant response rating, Barnyardgrass",[7]; [17],0
same,Barnyardgrass plant response rating,[7]; [18],40
same,Velvetleaf plant response rating,[8]; [15],20
same,"Plant response rating, Velvetleaf",[8]; [16],40
same,"Plant response rating, Velvetleaf",[8]; [17],60
same,Velvetleaf plant response rating,[8]; [18],90
same,Cocklebur plant response rating,[9]; [15],90
same,"Plant response rating, Cocklebur",[9]; [16],100
same,"Plant response rating, Cocklebur",[9]; [17],80
same,Cocklebur plant response rating,[9]; [18],90
same,Lambsquarters plant response rating,[10]; [15],80
same,"Plant response rating, Lambsquarters",[10]; [16],90
same,"Plant response rating, Lambsquarters",[10]; [17],90
same,Lambsquarters plant response rating,[10]; [18],100
same,Crabgrass plant response rating,[11]; [15],10
same,"Plant response rating, Crabgrass",[11]; [16],60
same,"Plant response rating, Crabgrass",[11]; [17],20
same,Crabgrass plant response rating,[11]; [18],90
same,"Plant response rating, Barnyardgrass",[12],0
same,"Plant response rating, Sedge, Umbrella",[13],70
same,"Plant response rating, Rice",rice (Oryza sativa),0
same,"Plant response rating, Ducksalad",[14],80
